Assay: molar heat capacity at constant pressure
Conditions: 101.33 kPa, Crystal, Small sample (50 mg) DSC

O=[PH](O)O [phosphonic acid]
Conditions | molar heat capacity at constant pressure [J/K/mol]
243.2 K | 48.3
244.2 K | 48.54
245.2 K | 48.62
246.2 K | 48.87
247.2 K | 49.03
248.2 K | 49.36
249.2 K | 49.69
250.2 K | 49.77
251.2 K | 50.1
252.2 K | 50.35
253.2 K | 50.59
254.2 K | 50.59
255.2 K | 50.84
256.2 K | 51
257.2 K | 51.08
258.2 K | 51.17
259.2 K | 51.33
260.2 K | 51.49
261.2 K | 51.9
262.2 K | 52.15
263.2 K | 52.48
264.2 K | 52.72
265.2 K | 52.97
266.2 K | 53.22
267.2 K | 53.54
268.2 K | 53.87
269.2 K | 54.2
270.2 K | 54.28
271.2 K | 54.45
272.2 K | 54.69
273.2 K | 54.86
274.2 K | 55.35
275.2 K | 55.76
276.2 K | 57.81
277.2 K | 58.46
278.2 K | 57.32
279.2 K | 56.91
280.2 K | 57.15
281.2 K | 57.32
282.2 K | 57.56
283.2 K | 57.81
284.2 K | 57.64
285.2 K | 57.64
286.2 K | 57.89
287.2 K | 58.87
288.2 K | 60.18
289.2 K | 60.02
290.2 K | 60.02
291.2 K | 60.1
292.2 K | 60.59
293.2 K | 61.09
294.2 K | 61
295.2 K | 61.09
296.2 K | 61.5
297.2 K | 61.58
298.2 K | 62.07
299.2 K | 62.48
300.2 K | 62.81
301.2 K | 63.38
302.2 K | 63.63
303.2 K | 64.45
304.2 K | 64.94
305.2 K | 65.35
306.2 K | 65.76
307.2 K | 66.33
308.2 K | 66.74
309.2 K | 67.4
310.2 K | 67.65
311.2 K | 68.06
312.2 K | 68.71
313.2 K | 69.37
314.2 K | 70.11
315.2 K | 70.35
316.2 K | 71.09
317.2 K | 71.66
318.2 K | 72.48
319.2 K | 73.22
320.2 K | 73.88
321.2 K | 75.03
322.2 K | 75.93
323.2 K | 77.24
324.2 K | 78.55
325.2 K | 80.44
326.2 K | 81.91
327.2 K | 83.64
328.2 K | 85.11

Source: the NIST ThermoML archive (doi:10.1016/j.jct.2016.03.001)
